Test results as given in ChEMBL document CHEMBL5291721, “A preclinical secondary pharmacology resource illuminates target-adverse drug reaction associations of marketed drugs” (Nat Commun, 2023).

Legend:
[1] = target: Sodium-dependent dopamine transporter (Homo sapiens, UniProt Q01959)
D(1A) dopamine receptor = D(1A) dopamine receptor (Homo sapiens, UniProt P21728)
Prothrombin = Prothrombin (Homo sapiens, UniProt P00734); format: functional
Progesterone receptor = target: T1, Progesterone receptor (Homo sapiens, UniProt P06401)
T1 sequence (P06401 whole entry): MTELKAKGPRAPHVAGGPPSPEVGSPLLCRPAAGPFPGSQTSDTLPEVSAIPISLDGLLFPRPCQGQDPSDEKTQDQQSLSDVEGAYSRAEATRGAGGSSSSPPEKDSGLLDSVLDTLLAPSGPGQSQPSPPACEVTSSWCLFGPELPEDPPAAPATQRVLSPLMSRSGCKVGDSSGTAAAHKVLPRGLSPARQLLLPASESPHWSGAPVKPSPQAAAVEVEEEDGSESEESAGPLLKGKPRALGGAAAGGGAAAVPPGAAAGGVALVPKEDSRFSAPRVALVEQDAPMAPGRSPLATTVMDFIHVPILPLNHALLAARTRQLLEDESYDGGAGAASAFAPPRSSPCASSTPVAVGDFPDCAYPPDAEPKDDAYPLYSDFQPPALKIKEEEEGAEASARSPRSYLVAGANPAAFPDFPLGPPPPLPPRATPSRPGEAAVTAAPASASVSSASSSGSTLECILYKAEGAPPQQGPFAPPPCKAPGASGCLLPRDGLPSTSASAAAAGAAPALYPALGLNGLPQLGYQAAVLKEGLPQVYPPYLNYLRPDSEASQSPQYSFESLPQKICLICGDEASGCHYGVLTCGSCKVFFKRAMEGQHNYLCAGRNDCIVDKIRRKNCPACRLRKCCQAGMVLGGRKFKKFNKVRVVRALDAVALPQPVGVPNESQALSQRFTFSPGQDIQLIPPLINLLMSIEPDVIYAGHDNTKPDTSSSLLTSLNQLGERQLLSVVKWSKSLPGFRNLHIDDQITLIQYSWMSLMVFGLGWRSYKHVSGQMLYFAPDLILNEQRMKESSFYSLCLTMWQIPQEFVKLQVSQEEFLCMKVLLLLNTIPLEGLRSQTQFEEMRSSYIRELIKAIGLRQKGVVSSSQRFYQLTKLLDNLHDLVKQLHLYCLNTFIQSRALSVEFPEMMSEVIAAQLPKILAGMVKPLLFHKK

[2] = target: T2, Amine oxidase [flavin-containing] A (Homo sapiens, UniProt P21397); format: functional
T2 sequence (P21397 whole entry): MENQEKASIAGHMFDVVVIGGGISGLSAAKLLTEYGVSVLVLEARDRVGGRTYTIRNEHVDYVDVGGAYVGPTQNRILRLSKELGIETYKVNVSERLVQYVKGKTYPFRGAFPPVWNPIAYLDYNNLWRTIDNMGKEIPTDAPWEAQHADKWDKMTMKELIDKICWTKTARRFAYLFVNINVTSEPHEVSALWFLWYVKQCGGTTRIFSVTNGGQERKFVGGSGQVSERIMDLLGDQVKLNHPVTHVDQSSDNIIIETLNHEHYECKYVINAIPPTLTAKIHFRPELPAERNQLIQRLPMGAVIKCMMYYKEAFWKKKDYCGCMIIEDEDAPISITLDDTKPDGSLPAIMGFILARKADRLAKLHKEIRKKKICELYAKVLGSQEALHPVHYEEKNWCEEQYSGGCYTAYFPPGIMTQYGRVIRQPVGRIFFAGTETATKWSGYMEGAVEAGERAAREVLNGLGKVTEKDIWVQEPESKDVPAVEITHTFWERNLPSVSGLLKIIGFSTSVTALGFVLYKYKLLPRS

[3] = target: T3, Alpha-1A adrenergic receptor (Homo sapiens, UniProt P35348); format: functional, cell-based
T3 sequence (P35348 whole entry): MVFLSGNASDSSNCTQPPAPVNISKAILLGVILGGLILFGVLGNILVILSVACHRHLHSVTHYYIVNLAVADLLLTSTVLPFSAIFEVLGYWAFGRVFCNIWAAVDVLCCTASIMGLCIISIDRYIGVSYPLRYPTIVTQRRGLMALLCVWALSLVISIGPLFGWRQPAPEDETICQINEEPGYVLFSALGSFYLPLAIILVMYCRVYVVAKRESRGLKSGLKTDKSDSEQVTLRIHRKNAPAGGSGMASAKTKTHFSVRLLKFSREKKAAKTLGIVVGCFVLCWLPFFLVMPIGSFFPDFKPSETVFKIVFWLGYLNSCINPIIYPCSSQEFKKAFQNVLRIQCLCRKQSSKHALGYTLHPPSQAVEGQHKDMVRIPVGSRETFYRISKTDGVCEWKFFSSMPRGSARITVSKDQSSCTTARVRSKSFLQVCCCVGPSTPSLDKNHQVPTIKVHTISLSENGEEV

Estrogen receptor = target: T4, Estrogen receptor (Homo sapiens, UniProt P03372)
T4 sequence (P03372 whole entry): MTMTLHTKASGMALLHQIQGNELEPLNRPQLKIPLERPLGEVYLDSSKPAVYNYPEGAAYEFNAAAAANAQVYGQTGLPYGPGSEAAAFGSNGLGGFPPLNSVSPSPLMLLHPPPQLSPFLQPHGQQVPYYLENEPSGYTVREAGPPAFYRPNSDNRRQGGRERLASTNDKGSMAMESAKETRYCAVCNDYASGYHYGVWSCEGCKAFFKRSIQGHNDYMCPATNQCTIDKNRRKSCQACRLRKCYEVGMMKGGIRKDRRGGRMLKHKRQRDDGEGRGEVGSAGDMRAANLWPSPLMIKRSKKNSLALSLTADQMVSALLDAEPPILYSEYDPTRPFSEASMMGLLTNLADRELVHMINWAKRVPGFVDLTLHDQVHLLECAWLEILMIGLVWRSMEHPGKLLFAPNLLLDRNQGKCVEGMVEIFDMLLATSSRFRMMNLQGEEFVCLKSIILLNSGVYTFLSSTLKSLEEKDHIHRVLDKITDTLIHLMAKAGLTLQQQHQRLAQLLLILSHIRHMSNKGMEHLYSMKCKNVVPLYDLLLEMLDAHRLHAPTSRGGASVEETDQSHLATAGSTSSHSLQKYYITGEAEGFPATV
Note: assay procedure not described here.

Sodium-dependent dopamine transporter, sequence (Q01959 whole entry): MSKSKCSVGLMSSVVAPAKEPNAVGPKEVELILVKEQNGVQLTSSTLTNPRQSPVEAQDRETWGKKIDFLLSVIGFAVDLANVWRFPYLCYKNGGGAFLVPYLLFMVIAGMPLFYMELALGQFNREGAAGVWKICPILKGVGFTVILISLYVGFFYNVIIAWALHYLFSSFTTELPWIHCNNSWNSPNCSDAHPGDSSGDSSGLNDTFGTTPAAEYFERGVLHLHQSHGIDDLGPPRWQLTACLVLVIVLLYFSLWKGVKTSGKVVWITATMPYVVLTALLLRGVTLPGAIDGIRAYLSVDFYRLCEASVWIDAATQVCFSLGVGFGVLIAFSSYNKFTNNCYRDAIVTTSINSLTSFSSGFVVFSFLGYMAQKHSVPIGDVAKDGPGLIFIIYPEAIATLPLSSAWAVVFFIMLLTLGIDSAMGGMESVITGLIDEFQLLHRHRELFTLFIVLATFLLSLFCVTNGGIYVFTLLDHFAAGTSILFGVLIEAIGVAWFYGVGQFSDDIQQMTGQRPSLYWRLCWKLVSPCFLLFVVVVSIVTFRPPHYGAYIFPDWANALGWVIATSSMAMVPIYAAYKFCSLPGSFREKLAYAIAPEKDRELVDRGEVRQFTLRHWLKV
D(1A) dopamine receptor, sequence (P21728 whole entry): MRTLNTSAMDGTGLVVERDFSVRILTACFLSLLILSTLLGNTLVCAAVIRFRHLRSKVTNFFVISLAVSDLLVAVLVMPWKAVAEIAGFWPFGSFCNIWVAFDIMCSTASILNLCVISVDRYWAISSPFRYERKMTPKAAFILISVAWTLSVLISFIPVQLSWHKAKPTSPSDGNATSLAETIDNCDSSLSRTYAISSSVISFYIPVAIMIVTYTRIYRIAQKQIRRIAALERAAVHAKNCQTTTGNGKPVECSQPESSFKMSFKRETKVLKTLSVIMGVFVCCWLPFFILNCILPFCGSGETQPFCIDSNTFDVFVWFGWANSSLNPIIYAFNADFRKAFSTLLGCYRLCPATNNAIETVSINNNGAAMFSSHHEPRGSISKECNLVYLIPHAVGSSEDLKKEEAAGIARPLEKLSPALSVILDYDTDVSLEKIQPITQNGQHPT

Compound | AC50 [1] | AC50 (D(1A) dopamine receptor) | AC50 (Prothrombin) | AC50 (Progesterone receptor) | AC50 [2] | AC50 [3] | AC50 (Estrogen receptor)
C[S+](CC[C@H](N)C(=O)[O-])C[C@H]1O[C@@H](n2cnc3c(N)ncnc32)[C@H](O)[C@@H]1O (some centres undefined) [ADEMETIONINE] | > 30 µM | > 30 µM | > 30 µM | > 30 µM | > 30 µM | > 30 µM | 
COc1ccc2c(c1)N(C[C@H](C)CN(C)C)c1ccccc1S2 [LEVOMEPROMAZINE] |  |  | > 30 µM | > 30 µM | > 30 µM |  | > 30 µM
Cc1ccccc1OCC(O)CO (centres undefined) [MEPHENESIN] | > 30 µM | > 30 µM | > 30 µM | > 30 µM | > 30 µM | > 30 µM | 
Cc1cc(OP(=O)(O)O)c2ccccc2c1OP(=O)(O)O [MENADIOL SODIUM DIPHOSPHATE] | > 30 µM | > 30 µM | > 30 µM | > 30 µM | > 30 µM | > 30 µM | 
COc1cc2c3cc1Oc1cc(ccc1O)C[C@@H]1c4c(cc(OC)c(O)c4Oc4ccc(cc4)C[C@@H]3N(C)CC2)CC[N+]1(C)C [TUBOCURARINE] | > 30 µM | > 30 µM | > 30 µM | > 30 µM | > 30 µM | > 30 µM | 
C=CCCCCCCCCC(=O)O [UNDECYLENIC ACID] | > 30 µM | > 30 µM | > 30 µM | > 30 µM | > 30 µM |  | > 30 µM
Cc1oc(=O)oc1CN1CCN(c2cc3c(cc2F)c(=O)c(C(=O)O)c2n3C(C)S2)CC1 (centres undefined) [PRULIFLOXACIN] | > 30 µM | > 30 µM | > 30 µM | > 30 µM | > 30 µM |  | > 30 µM
Cc1cc(C)c(NC(=O)CN(CC(=O)O)CC(=O)O)c(C)c1Br [MEBROFENIN] | > 30 µM | > 30 µM | > 30 µM | > 30 µM | > 30 µM |  | 
CC[C@H]1CN2CCc3cc(OC)c(OC)cc3[C@@H]2C[C@@H]1C[C@H]1NCCc2cc(OC)c(OC)cc21 [EMETINE] | > 30 µM | 15.7 µM | > 30 µM | > 30 µM | > 30 µM |  | 
NC1=NCC2c3ccccc3Cc3ccccc3N12 (centres undefined) [EPINASTINE] | > 30 µM | 0.125 µM | > 30 µM | > 30 µM | > 30 µM | > 30 µM | 
CN1CCN(C2=Nc3ccccc3Sc3ccc(Cl)cc32)CC1 [CLOTHIAPINE] | 3.62 µM | 0.0061 µM | > 30 µM | > 30 µM | > 30 µM | > 10 µM | 
OC[C@@H](O)[C@H](O)[C@@H](O)CO [XYLITOL] | > 30 µM | > 30 µM | > 30 µM | > 30 µM | > 30 µM | > 30 µM | 
O=c1[nH]c(=O)n([C@H]2C[C@H](O)[C@@H](CO)O2)cc1I [IDOXURIDINE] | > 30 µM | > 30 µM | > 30 µM | > 30 µM | > 30 µM | > 30 µM | 
